Among the data in PubChem BioAssay AID328 (DTP/NCI, 2004) are T/C values, retold here.

Several values for one entry are separate records, joined by “and”; a condition that tells them apart may be missing. Equal entries are not always repeated. Inconclusive results and toxic doses are left out. Residues, ends and D or L forms follow the SMILES beside them. *: point of attachment. Cbz = O=C(OCc1ccccc1)*; Bn = c1ccc(C*)cc1; βAla = NCCC(=O)O

In this assay the test system is BDF1 mice, P388 leukemia ip, median survival T/C. Kind of assay: NCI In Vivo Anticancer Drug Screen. Data for tumor model P388 Leukemia (intraperitoneal) in B6D2F1 (BDF1) mice. The settings on record: endpoint: median survival time, higher = longer survival. Summed up:
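Transplantable tumour in mice; compound vs vehicle dosing; survival scored; ratio of treated to control reported.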

Setting [1] is: dose: 100.0 mg/kg/injection, schedule: Q04DX003 (ip), vehicle: saline with Tween-80.
Where [2] appears, read: dose: 200.0 mg/kg/injection, schedule: Q04DX003 (ip), vehicle: saline with Tween-80.
Where [3] appears, read: dose: 400.0 mg/kg/injection, schedule: Q04DX003 (ip), vehicle: saline with Tween-80.

Take `COC(=O)C(CSCc1ccccc1)NC(=O)C(CSCc1ccccc1)NC(=O)CCNC(=O)OCc1ccccc1` (configuration not stated) ({Cbz-βAla}-Cys(Bn)-Cys(Bn)-OMe; configuration not given here): the T/C is 102 % of control (dose: 25.0 mg/kg/injection, schedule: Q04DX003 (ip), vehicle: Klucel (hydroxypropylcellulose) (HPC)); 100 % of control (dose: 50.0 mg/kg/injection, schedule: Q04DX003 (ip), vehicle: Klucel (hydroxypropylcellulose) (HPC)); 95 % of control (dose: 100.0 mg/kg/injection, schedule: Q04DX003 (ip), vehicle: Klucel (hydroxypropylcellulose) (HPC)); 93 % of control (dose: 200.0 mg/kg/injection, schedule: Q04DX003 (ip), vehicle: Klucel (hydroxypropylcellulose) (HPC)); 93 % of control (dose: 400.0 mg/kg/injection, schedule: Q04DX003 (ip), vehicle: Klucel (hydroxypropylcellulose) (HPC)).
For `COc1ccc(OCC(O)CN2CCN(c3ccc(Cl)cc3)CC2)cc1` (configuration not stated), the T/C runs as follows: (dose: 6.25 mg/kg/injection, schedule: Q01DX009 (ip), vehicle: Klucel (hydroxypropylcellulose) (HPC)) 100 % of control; (dose: 12.5 mg/kg/injection, schedule: Q01DX009 (ip), vehicle: Klucel (hydroxypropylcellulose) (HPC)) 95 % of control; (dose: 25.0 mg/kg/injection, schedule: Q01DX009 (ip), vehicle: Klucel (hydroxypropylcellulose) (HPC)) 86 % of control.
Consider `COCCCN=C(N)c1ccc(NC(=O)c2ccc(C(=O)Nc3ccc(C(N)=NCCCOC)cc3)cc2)cc1`, for which the T/C is 120 % of control (dose: 0.22 mg/kg/injection, schedule: Q01DX009 (ip), vehicle: saline with Tween-80); 116 % of control (dose: 0.5 mg/kg/injection, schedule: Q01DX009 (ip), vehicle: saline with Tween-80); 150 % of control (dose: 0.66 mg/kg/injection, schedule: Q01DX009 (ip), vehicle: saline with Tween-80); 156 % of control (dose: 1.0 mg/kg/injection, schedule: Q01DX009 (ip), vehicle: saline with Tween-80); 176 % of control (dose: 1.5 mg/kg/injection, schedule: Q01DX009 (ip), vehicle: saline with Tween-80); 118 % of control (dose: 1.78 mg/kg/injection, schedule: Q04DX003 (ip), vehicle: saline with Tween-80). The T/C reads like this: (dose: 2.25 mg/kg/injection, schedule: Q01DX009 (ip), vehicle: saline with Tween-80) 194 % of control; (dose: 3.75 mg/kg/injection, schedule: Q01DX009 (ip), vehicle: saline with Tween-80) 231 % of control; (dose: 4.0 mg/kg/injection, schedule: Q04DX003 (ip), vehicle: saline with Tween-80) 122 % of control; (dose: 7.5 mg/kg/injection, schedule: Q01DX009 (ip), vehicle: saline with Tween-80) 113 % of control; (dose: 15.0 mg/kg/injection, schedule: Q01DX009 (ip), vehicle: saline with Tween-80) 90 % of control; (dose: 15.0 mg/kg/injection, schedule: Q04DX003 (ip), vehicle: saline with Tween-80) 159 % of control.
Consider `COc1ccc(CC2OCCC3c4ccccc4NC23)cc1OC` (configuration not stated), for which the T/C is, setting by setting: under setting [1], 93 % of control; under setting [2], 109 % of control; under setting [3], 111 % of control.
Taken in the same sequence, the figures for `COc1ccc(C(O)c2ccccn2)cc1` (configuration not stated) were 100 % of control, 110 % of control and 105 % of control.
Consider `CCOP(=S)(OCC)Sc1cnn(C)c(=O)c1SCC`, for which the T/C is 100 % of control (dose: 50.0 mg/kg/injection, schedule: Q01DX005 (ip), vehicle: saline with Tween-80); 99 % of control (dose: 100.0 mg/kg/injection, schedule: Q01DX005 (ip), vehicle: saline with Tween-80); 100 % of control (dose: 200.0 mg/kg/injection, schedule: Q01DX005 (ip), vehicle: saline with Tween-80).
Consider `COc1cc2c(cc1OC)C1CCc3cc(OC)c(OC)cc3C1N=C2` (configuration not stated), for which the T/C is, setting by setting: (dose: 20.0 mg/kg/injection, schedule: Q01DX009 (ip), vehicle: saline) 95 % of control; (dose: 40.0 mg/kg/injection, schedule: Q01DX009 (ip), vehicle: saline) 95 % of control; (dose: 80.0 mg/kg/injection, schedule: Q01DX009 (ip), vehicle: saline) 100 % of control; (dose: 120.0 mg/kg/injection, schedule: Q01DX009 (ip), vehicle: saline) 100 % of control; (dose: 240.0 mg/kg/injection, schedule: Q01DX009 (ip), vehicle: saline) 95 % of control.
Regarding `CCCCCCC(=O)CCCCCCCCCCCCC(=O)OC`, the T/C runs as follows: (dose: 1.56 mg/kg/injection, schedule: Q01DX009 (ip), vehicle: saline with Tween-80) 90 % of control; (dose: 3.13 mg/kg/injection, schedule: Q01DX009 (ip), vehicle: saline with Tween-80) 100 % of control; (dose: 6.25 mg/kg/injection, schedule: Q01DX009 (ip), vehicle: saline with Tween-80) 95 % of control.
`NC(C(=O)O)c1cccc(Cl)c1` (configuration not stated): the T/C is 91 % of control (dose: 100.0 mg/kg/injection, schedule: Q01DX001 (ip), vehicle: Klucel (hydroxypropylcellulose) (HPC)); 108 % of control (dose: 200.0 mg/kg/injection, schedule: Q01DX001 (ip), vehicle: Klucel (hydroxypropylcellulose) (HPC)); 95 % of control (dose: 400.0 mg/kg/injection, schedule: Q01DX001 (ip), vehicle: Klucel (hydroxypropylcellulose) (HPC)).
For `O=C(CCl)NC(CO)C(=O)O` (configuration not stated), the T/C (dose: 50.0 mg/kg/injection, schedule: Q04DX003 (ip), vehicle: saline) is 91 % of control; the T/C (dose: 100.0 mg/kg/injection, schedule: Q04DX003 (ip), vehicle: saline) was 100 % of control; the T/C (dose: 200.0 mg/kg/injection, schedule: Q04DX003 (ip), vehicle: saline) is 91 % of control.
With `Cc1ccc2c(C)c3c(ccc4ccccc43)c[n+]2c1`, the T/C (dose: 1.25 mg/kg/injection, schedule: Q01DX009 (ip), vehicle: Klucel (hydroxypropylcellulose) (HPC)) is 115 % of control; the T/C (dose: 1.25 mg/kg/injection, schedule: Q01DX009 (ip), vehicle: saline) is 115 % of control; the T/C (dose: 2.5 mg/kg/injection, schedule: Q01DX009 (ip), vehicle: Klucel (hydroxypropylcellulose) (HPC)) was 120 % of control; the T/C (dose: 2.5 mg/kg/injection, schedule: Q01DX009 (ip), vehicle: saline) was 100 % of control; the T/C (dose: 2.5 mg/kg/injection, schedule: Q04DX003 (ip), vehicle: saline) was 100 % of control; the T/C (dose: 5.0 mg/kg/injection, schedule: Q04DX003 (ip), vehicle: saline) is 104 % of control. Besides, the T/C is 90 % of control (dose: 10.0 mg/kg/injection, schedule: Q01DX009 (ip), vehicle: saline); 116 % of control (dose: 10.0 mg/kg/injection, schedule: Q04DX003 (ip), vehicle: saline); 120 % of control (dose: 20.0 mg/kg/injection, schedule: Q04DX003 (ip), vehicle: saline).
On to `CC[N+](CC)(CC)CCCCC[N+](CC)(CC)CC`, for which the T/C runs as follows: (dose: 6.25 mg/kg/injection, schedule: Q04DX003 (ip), vehicle: water) 104 % of control; (dose: 12.5 mg/kg/injection, schedule: Q04DX003 (ip), vehicle: water) 114 % of control; (dose: 25.0 mg/kg/injection, schedule: Q04DX003 (ip), vehicle: water) 100 % of control and 114 % of control.
For `COc1ccc(CCNC(=O)/C=C\C(=O)O)cc1OC`, the T/C (dose: 100.0 mg/kg/injection, schedule: Q01DX009 (ip), vehicle: saline with Tween-80) was 95 % of control; the T/C (dose: 200.0 mg/kg/injection, schedule: Q01DX009 (ip), vehicle: saline with Tween-80) was 95 % of control; the T/C (dose: 400.0 mg/kg/injection, schedule: Q01DX009 (ip), vehicle: saline with Tween-80) is 100 % of control.
As to `CCCCCCOC(=O)C(O)c1ccccc1` (configuration not stated), the T/C is 109 % of control (dose: 50.0 mg/kg/injection, schedule: Q04DX003 (ip), vehicle: saline with Tween-80); 95 % of control under setting [1]; 95 % of control under setting [2]; 100 % of control under setting [3].
